Results reported in ChEMBL document CHEMBL5113477, “Membrane acting Povarov-Doebner derived compounds potently disperse preformed multidrug resistant Gram-positive bacterial biofilms” (Eur J Med Chem, 2022).
Values after ≈ are worked out from the molar mass of the structure shown. Active and inactive are the calls of the source. The rule behind the calls is not given here.

What was measured:
Staphylococcus aureus [1] = assay: Antibacterial activity against methicillin-resistant Staphylococcus aureus USA 300 (ARLG 1561) assessed as reduction in visible bacterial growth incubated for 18 to 20 hrs by CLSI based broth microdilution analysis; format: functional; details: time 18-20 hrs
Staphylococcus aureus [2] = assay: (§1) Synergistic antibiofilm activity against methicillin-resistant Staphylococcus aureus USA 300 in TSB broth assessed as dispersal of glucose-induced biofilm preincubated with glucose for 48 hrs followed by compound addition and further incubated for 24 hrs in presence of Bithionol by crystal violet staining based checkerboard assay; format: functional
Enterococcus faecalis [3] = assay: Antibacterial activity against Enterococcus faecalis ATCC 29212 assessed as reduction in visible bacterial growth incubated for 18 to 20 hrs by CLSI based broth microdilution analysis; format: functional; details: time 18-20 hrs
Staphylococcus aureus [4] = assay: Antibacterial activity against methicillin-resistant Staphylococcus aureus USA 300 (ARLG 1644) assessed as reduction in visible bacterial growth incubated for 18 to 20 hrs by CLSI based broth microdilution analysis; format: functional; details: time 18-20 hrs
Enterococcus faecium [5] = assay: (§2) Synergistic antibiofilm activity against vancomycin-resistant Enterococcus faecium ATCC 700221 in TSB broth assessed as dispersal of glucose-induced biofilm by measuring fractional inhibitory concentration index preincubated with glucose for 48 hrs followed by compound addition and further incubated for 24 hrs in presence of Nitroxoline by crystal violet staining based checkerboard assay; format: functional
Staphylococcus aureus [6] = assay: as §1, with “glucose-induced biofilm at 4 ug/ml preincubated with” for “glucose-induced biofilm preincubated with”, “staining based assay” for “staining based checkerboard assay”; format: functional; details: dose 4 µg/ml
Staphylococcus aureus [7] = assay: Antibiofilm activity against methicillin-resistant Staphylococcus aureus USA 300 in TSB broth assessed as dispersal of glucose-induced biofilm preincubated with glucose for 48 hrs followed by compound addition and measured after 24 hrs by crystal violet staining based analysis; format: functional
Staphylococcus aureus [8] = assay: Inhibition of biofilm formation in methicillin-resistant Staphylococcus aureus ATCC 33592 in TSB broth at 0.0078 to 4 ug/ml incubated for 48 hrs in presence of glucose by crystal violet staining based analysis; format: functional, organism-based; details: dose 0.0078-4 µg/ml
Cell membrane = assay: Induction of membrane permeabilization in Staphylococcus aureus ATCC 25923 measured every 3 mins for 180 mins by sytox green dye based flow cytometry analysis; format: subcellular; details: dose 0.5-4 µg/ml, DDE = dose-dependent effect
Staphylococcus aureus [9] = assay: Antibacterial activity against methicillin-resistant Staphylococcus aureus USA 300 (ARLG 1665) assessed as reduction in visible bacterial growth incubated for 18 to 20 hrs by CLSI based broth microdilution analysis; format: functional; details: time 18-20 hrs
Staphylococcus aureus [10] = assay: Antibacterial activity against methicillin-resistant Staphylococcus aureus USA 300 (ARLG 1570) assessed as reduction in visible bacterial growth incubated for 18 to 20 hrs by CLSI based broth microdilution analysis; format: functional; details: time 18-20 hrs
Enterococcus faecium [11] = assay: as §2, with “[…]” for “fractional inhibitory concentration index”, “measured after” for “further incubated for”, “hrs” for “hrs in presence of Nitroxoline”; format: functional
Staphylococcus aureus [12] = assay: Antibacterial activity against methicillin-resistant Staphylococcus aureus ATCC 33592 assessed as reduction in visible bacterial growth incubated for 18 to 20 hrs by CLSI based broth microdilution analysis; format: functional; details: time 18-20 hrs
Enterococcus faecalis [13] = assay: (§3) Synergistic antibiofilm activity against vancomycin-resistant Enterococcus faecalis ATCC 51575 in TSB broth assessed as dispersal of glucose-induced biofilm by measuring Nitroxoline MBEC preincubated with glucose for 48 hrs followed by compound addition and measured after 24 hrs by crystal violet staining based checkerboard assay; format: functional
Staphylococcus aureus [14] = assay: Inhibition of protein synthesis in Staphylococcus aureus ATCC 25923 at 0.25 to 8 ug/ml by [3H]-I-leucine incorporation assay; format: functional; details: dose 0.25-8 µg/ml
Enterococcus faecalis [15] = assay: Antibacterial activity against vancomycin-resistant Enterococcus faecalis ATCC 51575 assessed as reduction in visible bacterial growth incubated for 18 to 20 hrs by CLSI based broth microdilution analysis; format: functional; details: time 18-20 hrs
Staphylococcus aureus [16] = assay: (§4) Synergistic antibiofilm activity against methicillin-resistant Staphylococcus aureus USA 300 in TSB broth assessed as dispersal of glucose-induced biofilm with distribution of ruptured bacteria components and debris at 4 ug/ml preincubated with glucose for 48 hrs followed by compound addition and further incubated for 24 hrs in presence of Bithionol by SEM analysis; format: functional, organism-based; details: dose 4.0 µg/ml
Enterococcus faecium [17] = assay: as §2, with “Bithionol” for “Nitroxoline”; format: functional
Staphylococcus aureus [18] = assay: as §4, with “biofilm” for “biofilm with distribution of ruptured bacteria components and debris”, “at 1” for “at 4”, “of Nitroxoline” for “of Bithionol”; format: functional, organism-based; details: dose 1.0 µg/ml
Staphylococcus aureus [19] = assay: Antibacterial activity against methicillin-resistant Staphylococcus aureus USA 300 (ARLG 1649) assessed as reduction in visible bacterial growth incubated for 18 to 20 hrs by CLSI based broth microdilution analysis; format: functional; details: time 18-20 hrs
Enterococcus faecium [20] = assay: as §3, with “faecium” for “faecalis”, “700221” for “51575”; format: functional
Enterococcus faecalis [21] = assay: Inhibition of biofilm formation in vancomycin-resistant Enterococcus faecalis ATCC 51575 in TSB broth at 0.0078 to 4 ug/ml incubated for 48 hrs in presence of glucose by crystal violet staining based analysis; format: functional, organism-based; details: dose 0.0078-4 µg/ml
Staphylococcus aureus [22] = assay: Bactericidal activity against exponential phase of methicillin-resistant Staphylococcus aureus USA 300 at 1 to 4 times MIC incubated for 2 to 8 hrs by time kill assay; format: functional, organism-based; details: time 2-8 hrs
Staphylococcus aureus [23] = assay: Bactericidal activity against persister methicillin-resistant Staphylococcus aureus USA 300 at 1 times MIC incubated for 4 hrs by time kill assay; format: functional
Enterococcus faecium [24] = assay: Antibacterial activity against vancomycin-resistant Enterococcus faecium ATCC 700221 assessed as reduction in visible bacterial growth incubated for 18 to 20 hrs by CLSI based broth microdilution analysis; format: functional; details: time 18-20 hrs
Staphylococcus aureus [25] = assay: Synergistic antibiofilm activity against methicillin-resistant Staphylococcus aureus USA 300 in TSB broth assessed as dispersal of glucose-induced biofilm by measuring fractional inhibitory concentration index preincubated with glucose for 48 hrs followed by compound addition and further incubated for 24 hrs in presence of Nitroxoline by crystal violet staining based checkerboard assay; format: functional
Staphylococcus aureus [26] = assay: Synergistic antibiofilm activity against methicillin-resistant Staphylococcus aureus USA 300 in TSB broth assessed as dispersal of glucose-induced biofilm by measuring Bithionol MBEC preincubated with glucose for 48 hrs followed by compound addition and measured after 24 hrs by crystal violet staining based checkerboard assay; format: functional
Staphylococcus aureus [27] = assay: Antibiofilm activity against methicillin-resistant Staphylococcus aureus USA 300 in TSB broth assessed as dispersal of glucose-induced biofilm at 8 to 16 ug/ml preincubated with glucose for 48 hrs followed by compound addition and measured after 24 hrs by crystal violet staining based analysis; format: functional; details: dose 8-16 µg/ml, at 8 to 16 µg/mL
Listeria monocytogenes = assay: Antibacterial activity against Listeria monocytogenes ATCC 19115 assessed as reduction in visible bacterial growth incubated for 18 to 20 hrs by CLSI based broth microdilution analysis; format: functional; details: time 18-20 hrs
Staphylococcus aureus [28] = assay: Antibacterial activity against methicillin-resistant Staphylococcus aureus USA 300 (ARLG 1569) assessed as reduction in visible bacterial growth incubated for 18 to 20 hrs by CLSI based broth microdilution analysis; format: functional; details: time 18-20 hrs
Staphylococcus aureus [29] = assay: as §1, with “Nitroxoline” for “Bithionol”; format: functional

Question: What does the source list for Oc1ccc([C@@H]2Nc3ccc(S(F)(F)(F)(F)F)cc3[C@H]3[C@@H]4CC[C@@H](C4)[C@H]32)cc1?
Answer: MBC (Staphylococcus aureus [1]): 2 µg/mL (≈ 4.79 µM); MIC (Staphylococcus aureus [1]): 2 µg/mL (≈ 4.79 µM); MBEC (Staphylococcus aureus [2]): 4 µg/mL; MBC (Enterococcus faecalis [3]): 2 µg/mL (≈ 4.79 µM); MIC (Enterococcus faecalis [3]): 2 µg/mL (≈ 4.79 µM); MBC (Staphylococcus aureus [4]): 2 µg/mL (≈ 4.79 µM); MIC (Staphylococcus aureus [4]): 1 µg/mL (≈ 2.4 µM); fractional inhibitory concentration index (FICI) (Enterococcus faecium [5]): 0.16; Activity (Staphylococcus aureus [6]): >80%; MBEC (Staphylococcus aureus [7]): 32 µg/mL; inhibition (Staphylococcus aureus [8]): Active; Activity (Cell membrane): Dde; MBC (Staphylococcus aureus [9]): 2 µg/mL (≈ 4.79 µM); MIC (Staphylococcus aureus [9]): 1 µg/mL (≈ 2.4 µM); MBC (Staphylococcus aureus [10]): 2 µg/mL (≈ 4.79 µM); MIC (Staphylococcus aureus [10]): 1 µg/mL (≈ 2.4 µM); MBEC (Enterococcus faecium [11]): 2 µg/mL; MBC (Staphylococcus aureus [12]): 1 µg/mL (≈ 2.4 µM); MIC (Staphylococcus aureus [12]): 2 µg/mL (≈ 4.79 µM); MBEC (Enterococcus faecalis [13]): 2 µg/mL; inhibition (Staphylococcus aureus [14]): Active; MBC (Enterococcus faecalis [15]): 2 µg/mL (≈ 4.79 µM); MIC (Enterococcus faecalis [15]): 2 µg/mL (≈ 4.79 µM); Activity (Staphylococcus aureus [16]): Active; fractional inhibitory concentration index (FICI) (Enterococcus faecium [17]): 0.28; Activity (Staphylococcus aureus [18]): Active; MBC (Staphylococcus aureus [19]): 2 µg/mL (≈ 4.79 µM); MIC (Staphylococcus aureus [19]): 1 µg/mL (≈ 2.4 µM); MBEC (Enterococcus faecium [20]): 0.5 µg/mL; inhibition (Enterococcus faecalis [21]): Active; Activity (Staphylococcus aureus [22]): Active; Activity (Staphylococcus aureus [23]): 100%; MBC (Enterococcus faecium [24]): 2 µg/mL (≈ 4.79 µM); MIC (Enterococcus faecium [24]): 2 µg/mL (≈ 4.79 µM); fractional inhibitory concentration index (FICI) (Staphylococcus aureus [25]): 0.28; MBEC (Staphylococcus aureus [26]): 1 µg/mL; Activity (Staphylococcus aureus [27]): 70%; MIC (Listeria monocytogenes): 1 µg/mL (≈ 2.4 µM); MBC (Staphylococcus aureus [28]): 2 µg/mL (≈ 4.79 µM); MIC (Staphylococcus aureus [28]): 1 µg/mL (≈ 2.4 µM); MBEC (Staphylococcus aureus [29]): 1 µg/mL
